Here are results for one compound from patent EP4571306A1, “STABILIZING OXYGEN IN A COMPOSITION” (priority 2023, dated 2025).

How the values of this data set were obtained:
To test for sensor stability and performance, a cartridge use life test was completed after one month of cartridge shelf-life and then repeated after eight months of cartridge shelf-life.
Additionally, reagent performance on the GEM® Premier™ 5000 system was evaluated based on drift of parameters for assays performed on the GEM® Premier™ 5000 system. Drift for each assay parameter constitutes a deviation of measured results for each assay parameter from its factory assigned target. For example, ρO2 was measured several times during cartridge use at a defined frequency on the GEM® Premier™ 5000, and the drift was calculated for each measurement as the difference between measured […] for a composition and the ρO2 assigned to the composition at manufacture.
In this experiment, the control containers were confirmed to contain limited or no metal contamination (e.g., in parts-per-billion, cobalt 0.10, chromium 2.24, copper 0.64, iron 3.23, and manganese 0.63). The limits columns represents the maximum change that can occur during composition shelf-life according to the GEM® Premier™ 5000 design specifications.

As to `C[C@H]1COc2c(N3CCN(C)CC3)c(F)cc3c(=O)c(C(=O)O)cn1c23` [levofloxacin], the “effect on sensor performance and the performance and stability of the compositions” value is reported as “does not negatively affect sensor performance”.
